Assay results from patent publication US20050123936A1, “Method, composition, and kit to design, evaluate, and/or test compounds that modulate regulatory factor binding to nucleic acids” (priority 2003, published 2005).
Ends that are not written are not given here. Hoechst 33258 analog = not defined here

Legend:
[1] = test system: TGGCCA mismatch site on 250-bp EcoRI/PvuII restriction fragment from plasmid pDEH9; experiment: Quantitative DNase I footprint titration, mismatch site TGGCCA; assay type: binding
Method: (§1) Quantitative DNaseI footprinting can be used to determine the equilibrium association constants for binding to match and mismatch sites. Footprinting experiments are generally performed on 3′- and/or 5′-^32P end restriction fragments derived from plasmids. 3′-shifted cleavage patterns are consistent with location of the polyamide in the minor groove. Typical reaction conditions are: 10 mM Tris-HCl, 10 mM KCl, 10 mM MgCl2, 5 mM CaCl2, pH 7.0, and 22° C. See Brenowitz et al. (1986). Methods Enzymol. 130:132-181; Fox & Waring (1984) Nucleic Acids Res. 12:9271-9285; and Brenowitz et al. (1986) Proc. Natl. Acad. Sci. U.S.A. 83: 8462-8466.
(§2) DNase I Footprinting: Dissociation constants for the DNA binding of compounds 1, 2 and 3 were obtained following published protocols. All reactions were carried out in 400 μL total volume employing 20 kcpm of a 3′-radiolabelled 250-bp restriction fragment from the plasmid pDEH9 (FIG. 1a) (SEQ. ID. NO: 4). No carrier DNA was used in the equilibration, and the solutions were allowed to equilibrate for 12 h at 22° C. in TKMC buffer (10 mM TRIS, 10 mM KCl, […], 5 mM CaCl2 pH 7.0) prior to the DNase I digestion. Reaction products (8 kcpm) were resolved on denaturing 8% polyacrylamide sequencing gels run at 55 W.
(§3) FIGS. 1b, 1c, and 1d are quantitative DNAse I footprint titration experiments for compounds 1, 2 and 3 on the 3′^−32 P-labeled 250-bp EcoRI/PvuII restriction fragment from the plasmid pDEH9. Lane 1: Intact DNA. Lane 2: A-reaction. Lane 3: G-reaction. Lane 4: DNAse 1 standard.
(§4) The DNA-binding properties of the compounds 1-3 were investigated by quantitative DNase 1 footprinting assays. The equilibrium binding constants of each of the compounds for a matched versus three single base pair mismatch sites is compiled in Table 1. The lower strand sequence is shown in the header. Mismatched base pairs are underlined. The residue under the YPWM peptide is in bold. Relative specificities are given in square brackets.

[2] = target: TGGTCA matched site on 250-bp EcoRI/PvuII restriction fragment from plasmid pDEH9; experiment: Quantitative DNase I footprint titration, matched site; assay type: binding; settings: 12 h at 22° C., TKMC buffer pH 7.0, read-out: Equilibrium Dissociation Constants Kd, TGGTCA
Method: as §1
DNase I Footprinting: Dissociation constants for the DNA binding of compounds 1, 2 and 3 were obtained following published protocols. All reactions were carried out in 400 μL total volume employing 20 kcpm of a 3′-radiolabelled 250-bp restriction fragment from the plasmid pDEH9 (FIG. 1a) (SEQ. ID. NO: 4). […]
FIGS. 1b, 1c, and 1d are quantitative DNAse I footprint titration experiments for compounds 1, 2 and 3 on the 3′^−32 P-labeled 250-bp EcoRI/PvuII restriction fragment from the plasmid pDEH9. […]
The DNA-binding properties of the compounds 1-3 were investigated by quantitative DNase 1 footprinting assays. […]

[3] = test system: TGGGCA mismatch site on 250-bp EcoRI/PvuII restriction fragment from plasmid pDEH9; experiment: Quantitative DNase I footprint titration, mismatch site TGGGCA; assay type: binding
Method: as §1, §2, §3, §4

[4] = test system: DNA duplex templates (FIG. 2a optimal; FIG. 2c mismatch in PA binding site); experiment: EMSA: binding of polyamides to the DNA duplex templates; settings: even at 100 nM concentrations
Source text: (§5) For the templates, the DNA oligonucleotides depicted in FIGS. 2a, 2b, 2c, and 2d were used, SEQ. ID NOS: 5, 6, 7, and 8, respectively. The DNA upper strand was annealed with the respective matching lower strand and both strands were 5′-labeled with γ-^32P-ATP and polynucleotide kinase, using standard procedures.
FIGS. 2a, 2b, 2c and 2d show depict the DNA duplexes used for the EMSA studies. The binding site for the Exd protein is marked by a box, the polyamide or Hox protein binding site is shown in boldface, FIG. 2a depicts the optimal template. FIG. 2b depicts a 2-bp mismatch in the Exd site. FIG. 2c depicts a 2-hp mismatch in the PA binding site. FIG. 2d depicts a composite Ubx-Exd binding site (see Passner et al. (1999) Nature, 397:714-719). […]

[5] = test system: AGCTCA mismatch site on 250-bp EcoRI/PvuII restriction fragment from plasmid pDEH9; experiment: Quantitative DNase I footprint titration, mismatch site AGCTCA; assay type: binding
Method: as §1, §2, §3, §4

[6] = target: T1, extradenticle (Exd) protein (residues 238-324) (Drosophila melanogaster, UniProt P40427); experiment: EMSA: recruitment of Exd to its cognate DNA site by polyamides 1-3; assay type: binding; settings: saturating 50 nM compound, Exd 0-100 nM
T1 construct: comprising the homeodomain and the extended fourth helix (residues 238-324); made in house
T1 sequence (P40427 238-324): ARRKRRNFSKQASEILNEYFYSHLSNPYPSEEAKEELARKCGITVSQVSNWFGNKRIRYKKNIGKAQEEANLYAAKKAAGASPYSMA
Source text: (§6) Protein expression: Drosophila extradenticle (Exd) protein comprising the homeodomain and the extended fourth helix (residues 238-324), as well as ultrabithorax (Ubx) protein homeodomain (residues 233-313 of the Ubx isoform IVa) were expressed and purified after Passner & Aggarwal. The purified proteins Exd and Ubx were used for EMSA studies as described below.
as §5
Gel-shift experiments: The master mix contained 50% BSA/50% glycerol, reaction buffer (150 mM potassium glutamate, 50 mM HEPES pH 7.0, 1 mM DTT, and 5′-end labeled DNA (^32P) The final concentrations in the samples were 100 ng/μL BSA and 10% glycerol. Polyamides were kept in subdued lighting whenever possible. Upon addition of the polyamide to 1 pM DNA, the samples were incubated at 25 °C. for 30 minutes in a 20 μL reaction. Next, Exd was added to the samples and incubated for 1 hour at 4° C. A 9% acrylamide/3% glycerol gel was pre-run for 15 min prior to loading. In each lane 15 μL of a 20 μL reaction were loaded while the gel was running to prevent the samples from being diluted. The gels were run at 4° C./185 V. Gels were dried, exposed to a phosphorimager screen, and visualized using a Molecular Dynamics phosphorimager.
FIGS. 3a and 3b: EMSA studies with polyamides 1-3, Exd and Ubx. In FIG. 3a, each polyamide binds and decreases the mobility of free DNA (lanes 2-18). […] In lanes 2-6,8-12, 14-18, Exd was added in following concentrations: 0, 3, 10, 30, 100 nM. Lanes 19 and 20 contained DNA bearing the Exd-Ubx binding site that was used in X-ray crystal structure determination (see methods above for sequence). In the reaction shown in lane 20, 275 nM Ubx and 30 nM Exd were incubated with DNA. […]

Exd = target: T2, Exd (Drosophila melanogaster, UniProt P40427); experiment: Example 7 EMSA: recruitment of Exd by linker compounds; assay type: binding
T2 construct: comprising the homeodomain and the extended fourth helix (residues 238-324); made in house
T2 sequence (P40427 238-324): T1 sequence (P40427 238-324)
Method: The assays were performed with 50 nM of the conjugate pre-incubated with target DNA (thus to bind the anchor moiety to the target nucleic acid) followed by the addition and incubation with Exd.
To determine the effects of longer linker on binding, the ability of compounds using linkers 1, 2 and 4 to recruit Exd at three different temperatures was investigated.

double-stranded DNA = settings: Behrens et al. (2001); cited from earlier work
[7] = target: Ultrabithorax (Ubx) homeodomain, isoform IVa (Drosophila, UniProt P83949-5 P83949-5:233-313); experiment: EMSA; Ubx alone; 150 mM K glutamate, 50 mM HEPES pH 7.0, 4 C; settings: label: 5'-32P both strands
Method: Gel-shift studies with the Ubx protein were performed under identical buffer conditions using the duplex oligonucleotide listed in FIG. 2d. Ubx was added to the reaction mixture containing ³²P-endlabeled duplex DNA and incubated at 4° C. for 30 min. […] The complexes were resolved under similar gel conditions as those described for DNA-polyamide-Exd complexes above.

[8] = target: T3, extradenticle (Exd) protein (Drosophila melanogaster, UniProt P40427); experiment: EMSA: Exd binding to the binary Ubx-DNA complex; settings: saturating concentrations of Ubx (325 nM)
T3 construct: comprising the homeodomain and the extended fourth helix (residues 238-324); made in house
T3 sequence (P40427 238-324): T1 sequence (P40427 238-324)
Method: as §6
(§7) Gel-shift studies with the Ubx protein were performed under identical buffer conditions using the duplex oligonucleotide listed in FIG. 2d. Ubx was added to the reaction mixture containing ^32P-endlabeled duplex DNA and incubated at 4° C. for 30 min. Subsequently Exd was added and the reaction was further incubated for 60 min at 4° C. The complexes were resolved under similar gel conditions as those described for DNA-polyamide-Exd complexes above. […] Under saturating concentrations of Ubx (325 nM) the Kd of Exd for the binary [Ubx-DNA] complex was 2-3 fold larger than the affinity of Exd for the polyamide-DNA binary complex.

[9] = test system: duplex DNA with composite Ubx-Exd binding site (FIG. 2d); experiment: EMSA: Ubx binding to its cognate DNA
Method: as §7

[10] = relative to matched site TGGTCA

Sequence of Ultrabithorax (Ubx) homeodomain, isoform IVa (P83949 other isoform, or with tags, fused parts or gaps): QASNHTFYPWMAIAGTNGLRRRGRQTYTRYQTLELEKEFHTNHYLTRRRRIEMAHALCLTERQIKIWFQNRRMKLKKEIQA

## Cmpd 2 (FYPWMKG)
[1]; [10]
  Relative specificity (square brackets), TGGCCA: 1.4
[1]; single base pair mismatch site, 22° C., TKMC buffer, read-out: Equilibrium Dissociation Constants Kd, TGGCCA
  Kd: 7.9 ± 1.6 nM
[2]
  Kd: 5.8 ± 0.8 nM
[3]; [10]
  Relative specificity (square brackets), TGGGCA: 17
[3]; single base pair mismatch site, 22° C., TKMC buffer, read-out: Equilibrium Dissociation Constants Kd, TGGGCA
  Kd: ≥ 0.1 nM
[4]
  binding to mutated template (polyamide-binding site eliminated): did not bind
[5]; [10]
  Relative specificity (square brackets), AGCTCA: 1.1
[5]; single base pair mismatch site, 22° C., TKMC buffer, read-out: Equilibrium Dissociation Constants Kd, AGCTCA
  Kd: 6.4 ± 1.1 nM
[6]; listed as Compound 2
  ability to recruit Exd to its cognate DNA site (Exd binding): capable of recruiting Exd to DNA
[6]; listed as compound 2
  ability to recruit Exd to its cognate DNA site (Exd binding): binds DNA with very high affinity
Exd; physiological temperatures (37° C.)
  ability to recruit Exd: fails to do so effectively
Exd; room temperature (23° C.)
  ability to recruit Exd: capable of recruiting Exd

## Hoechst 33258 analog-KSPKKAKK polypeptide: Hoechst 33258 analog bonded to the N-terminus of the cationic polypeptide KSPKKAKK (Behrens et al.) ({Hoechst 33258 analog}-KSPKKAKK; reading uncertain)
double-stranded DNA
  higher affinity for double-stranded DNA than the Hoechst analog itself: approximately 10 fold

B1: Composite Ubx-Exd EMSA duplex (FIG. 2d) (dsDNA)
DNA 1: GATCTCCCGGCGAATGATTTATGGTATCGGCGCCACTGTCACCCGGA
DNA 2: TCCGGGTGACAGTGGCGCCGATACCATAAATCATTCGCCGGGAGATC
[7]
  Kd: 200 nM

B2: Ubx: Drosophila ultrabithorax (Ubx) protein homeodomain (residues 233-313 of the Ubx isoform IVa) (protein, UniProt P83949 233-313, looked up, fragment)
chain: QASNHTFYPWMAIAGECPEDPTKSKIRSDLTQYGGISTDMGKRYSESLAGSLLPDWLGTNGLRRRGRQTYTRYQTLELEKE
modifications: isoform IVa
[8]
  Kd of Exd for the binary [Ubx-DNA] complex, larger than for the polyamide-DNA binary complex: 2-3 fold
[9]
  affinity of Ubx for its DNA site lower than that of compound 2 for its respective site: ≥ 40 fold
[9]; 4° C.
  Kd: 200 ± 25 nM
